Legend:
H2 = H2 (Homo sapiens, UniProt P25021); experiment: G protein dissociation BRET assay; assay type: cell-based
33 human aminergic GPCRs = experiment: Pan-aminergic GPCR functional screen; assay type: cell-based; details: of 33 aminergic GPCR targets tested
5-HT2A [1] = target: T1, 5-HT2A (Homo sapiens, UniProt P28223); assay type: cell-based; details: β-arrestin recruitment, normalized to 5-HT
5-HT2A [2] = target: T1, 5-HT2A; experiment: NanoBit HiBiT surface expression/internalization assay; assay type: cell-based; details: 60 minutes of treatment
rat cortical neurons = experiment: Spinogenesis in cultured cortical neurons; assay type: cell-based; details: 1 and 10 μM, 3 h at DIV18, read 24 h after onset
[3] = Chronic variable stress: open field test; assay type: in vivo, female mice
[4] = Chronic variable stress: splash test; assay type: in vivo, female mice; details: 1X 3 mg/kg and 4X 1 mg/kg groups
[5] = test system: rest of the histamine and muscarinic GPCRs; experiment: G protein dissociation BRET assay; assay type: cell-based, human
PFC pyramidal neurons = experiment: Spine density in prefrontal cortex; details: 1 mg/kg IP, ~26 h after treatment, both sexes
HTR induced by DOI = experiment: Tolerance to DOI-induced HTR after repeated treatment; details: 3 mg/kg/day IP 7 days, DOI 1 mg/kg challenge 24 h later

T1 sequence (P28223 whole entry): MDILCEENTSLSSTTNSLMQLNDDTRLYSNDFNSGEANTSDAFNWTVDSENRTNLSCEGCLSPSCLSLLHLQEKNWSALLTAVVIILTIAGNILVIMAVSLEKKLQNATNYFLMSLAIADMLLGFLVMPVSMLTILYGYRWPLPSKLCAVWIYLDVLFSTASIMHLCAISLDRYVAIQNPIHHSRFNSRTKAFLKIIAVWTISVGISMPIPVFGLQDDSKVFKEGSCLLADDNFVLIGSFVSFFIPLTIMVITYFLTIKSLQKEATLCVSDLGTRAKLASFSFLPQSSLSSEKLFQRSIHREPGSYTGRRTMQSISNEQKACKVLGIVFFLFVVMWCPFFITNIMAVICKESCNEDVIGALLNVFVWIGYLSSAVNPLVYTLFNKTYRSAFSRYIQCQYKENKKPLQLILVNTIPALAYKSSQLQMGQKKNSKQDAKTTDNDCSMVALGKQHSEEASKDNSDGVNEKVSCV
Sequence of H2 (P25021 whole entry): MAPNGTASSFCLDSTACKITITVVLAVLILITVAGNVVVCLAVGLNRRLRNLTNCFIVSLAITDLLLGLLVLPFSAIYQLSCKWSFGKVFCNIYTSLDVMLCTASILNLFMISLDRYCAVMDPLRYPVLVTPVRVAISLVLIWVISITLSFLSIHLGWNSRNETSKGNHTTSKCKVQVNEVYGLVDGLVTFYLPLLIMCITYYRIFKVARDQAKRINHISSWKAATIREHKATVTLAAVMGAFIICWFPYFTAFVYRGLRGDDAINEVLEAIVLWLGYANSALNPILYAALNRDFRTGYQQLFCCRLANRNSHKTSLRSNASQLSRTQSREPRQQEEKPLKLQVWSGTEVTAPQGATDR

SMILES: CCN(CC)C(=O)[C@@H]1C=C2c3cccc4[nH]c(Br)c(c34)C[C@H]2N(C)C1.CCN(CC)C(=O)[C@@H]1C=C2c3cccc4[nH]c(Br)c(c34)C[C@H]2N(C)C1.O=C(O)C(O)C(O)C(=O)O [2-Br-LSD, (6aR,9R)-2-bromolysergic acid diethylamide (2:1) (+)-tartrate]
- agonism at H2 (H2): weak partial agonism
- number of aminergic GPCR targets with agonist activity (33 human aminergic GPCRs): 14
- EMAX (5-HT2A [1]): 36.9%
- 5-HT2A internalization (loss of surface expression) (5-HT2A [2]): partial agonist effect
- spine density (rat cortical neurons): spine density increased
- exploration of the arena center in CVS mice ([3]; 1X 3 mg/kg IP): partially restored the effect of CVS
- exploration of the arena center in CVS mice ([3]; 4X 1 mg/kg IP every 48 h): levels matching the control
- time exploring the center in CVS mice ([3]; 4X 1 mg/kg, 28 days after the last treatment): remained reversed
- self-grooming time in CVS mice [4]: partial reversal of CVS effects
- agonism or antagonism at the rest of the histamine and muscarinic GPCRs [5]: neither 2-Br-LSD nor LSD possessed weak agonism or antagonism
- average spine density in PFC (PFC pyramidal neurons): significant increase in average spine density
- tolerance on HTR after repeated treatment (HTR induced by DOI): no tolerance was observed

— publication PMC10112881 (Cell reports, 2023)
